Experimental data taken from patent US20230348442A1, “GALECTIN-3 INHIBITING 2-HYDROXYCYCLOALKANE-1-CARBAMOYL DERIVATIVES” (Idorsia Pharmaceuticals Ltd, priority 2020, published 2023).

target: human Gal-3 (hGal-3) (Homo sapiens (Human), UniProt P17931); experiment: competitive binding assay: binding of biotinylated hGal-3 to microplate-adsorbed asialofetuin (ASF), spectrophotometric; settings: Activity on hGal-3; mean values of several measurements
Method in brief: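 Compounds in DMSO dilution series competed with 300-1000 ng/mL biotinylated hGal-3 for asialofetuin adsorbed on the plate (3 h, 4° C). Streptavidin-peroxidase at 80 ng/mL (1 h, 4° C) with ABTS gave a spectrophotometric read-out, and IC50 was reported as the mean of repeat runs.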

human Gal-3 (hGal-3), sequence (P17931 whole entry): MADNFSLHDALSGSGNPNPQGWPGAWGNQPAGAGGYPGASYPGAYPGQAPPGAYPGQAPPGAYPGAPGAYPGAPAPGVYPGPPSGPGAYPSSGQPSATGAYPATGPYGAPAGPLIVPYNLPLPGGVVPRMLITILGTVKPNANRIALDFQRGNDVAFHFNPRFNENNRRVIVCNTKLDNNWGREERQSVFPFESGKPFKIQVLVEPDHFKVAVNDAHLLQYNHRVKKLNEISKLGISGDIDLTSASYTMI

SMILES	IC50
CO[C@@H]1[C@@H](n2cc(-c3cc(F)cc(Cl)c3)nn2)[C@@H](O)[C@@H](CO)O[C@H]1C(=O)N(c1cc(Br)cc(C#N)c1)[C@@H]1CC[C@H]1O [Example 2.9.5R, (2R,3R,4S,5R,6R)-N-(3-bromo-5-cyanophenyl)-4-(4-(3-chloro-5-fluorophenyl)-1H-1,2,3-triazol-1-yl)-5-hydroxy-N-((1R,2R)-2-hydroxycyclobutyl)-6-(hydroxymethyl)-3-methoxytetrahydro-2H-pyran-2-carboxamide]	473 nM
CO[C@@H]1[C@@H](n2cc(-c3cc(F)cc(Br)c3)nn2)[C@@H](O)[C@@H](CO)O[C@H]1C(=O)N(c1cc(C)cc(C#N)c1)[C@H]1CC[C@@H]1O [Example 2.10.8, (2R,3R,4S,5R,6R)-4-(4-(3-bromo-5-fluorophenyl)-1H-1,2,3-triazol-1-yl)-N-(3-cyano-5-methylphenyl)-5-hydroxy-N-((1S,2S)-2-hydroxycyclobutyl)-6-(hydroxymethyl)-3-methoxytetrahydro-2H-pyran-2-carboxamide]	232 nM
CO[C@@H]1[C@@H](n2cc(-c3cc(F)cc(Br)c3)nn2)[C@@H](O)[C@@H](CO)O[C@H]1C(=O)N(c1cc(C)cc(C#N)c1)[C@@H]1CC[C@H]1O [Example 2.10.8R, (2R,3R,4S,5R,6R)-4-(4-(3-bromo-5-fluorophenyl)-1H-1,2,3-triazol-1-yl)-N-(3-cyano-5-methylphenyl)-5-hydroxy-N-((1R,2R)-2-hydroxycyclobutyl)-6-(hydroxymethyl)-3-methoxytetrahydro-2H-pyran-2-carboxamide]	1190 nM
COc1cc(C#N)cc(N(C(=O)[C@@H]2O[C@H](CO)[C@H](O)[C@H](n3cc(-c4cc(F)cc(Br)c4)nn3)[C@H]2OC)[C@H]2CC[C@@H]2O)c1 [Example 2.10.9, (2R,3R,4S,5R,6R)-4-(4-(3-bromo-5-fluorophenyl)-1H-1,2,3-triazol-1-yl)-N-(3-cyano-5-methoxyphenyl)-5-hydroxy-N-((1S,2S)-2-hydroxycyclobutyl)-6-(hydroxymethyl)-3-methoxytetrahydro-2H-pyran-2-carboxamide]	224 nM
COc1cc(C#N)cc(N(C(=O)[C@@H]2O[C@H](CO)[C@H](O)[C@H](n3cc(-c4cc(F)cc(Br)c4)nn3)[C@H]2OC)[C@@H]2CC[C@H]2O)c1 [Example 2.10.9R, (2R,3R,4S,5R,6R)-4-(4-(3-bromo-5-fluorophenyl)-1H-1,2,3-triazol-1-yl)-N-(3-cyano-5-methoxyphenyl)-5-hydroxy-N-((1R,2R)-2-hydroxycyclobutyl)-6-(hydroxymethyl)-3-methoxytetrahydro-2H-pyran-2-carboxamide]	976 nM
CO[C@@H]1[C@@H](n2cc(-c3ccc(Br)c(F)c3F)nn2)[C@@H](O)[C@@H](CO)O[C@H]1C(=O)N(c1cc(Cl)cc(Cl)c1)[C@H]1CC[C@@H]1O [Example 2.12.2, (2R,3R,4S,5R,6R)-4-(4-(4-bromo-2,3-difluorophenyl)-1H-1,2,3-triazol-1-yl)-N-(3,5-dichlorophenyl)-5-hydroxy-N-((1S,2S)-2-hydroxycyclobutyl)-6-(hydroxymethyl)-3-methoxytetrahydro-2H-pyran-2-carboxamide]	180 nM
CO[C@@H]1[C@@H](n2cc(-c3ccc(Br)c(F)c3F)nn2)[C@@H](O)[C@@H](CO)O[C@H]1C(=O)N(c1cc(Cl)cc(Cl)c1)[C@@H]1CC[C@H]1O [Example 2.12.2R, (2R,3R,4S,5R,6R)-4-(4-(4-bromo-2,3-difluorophenyl)-1H-1,2,3-triazol-1-yl)-N-(3,5-dichlorophenyl)-5-hydroxy-N-((1R,2R)-2-hydroxycyclobutyl)-6-(hydroxymethyl)-3-methoxytetrahydro-2H-pyran-2-carboxamide]	100 nM
CO[C@@H]1[C@@H](n2cc(-c3ccc(Br)c(F)c3F)nn2)[C@@H](O)[C@@H](CO)O[C@H]1C(=O)N(c1cc(Cl)cc(C#N)c1)[C@@H]1CC[C@H]1O [Example 2.12.4R, (2R,3R,4S,5R,6R)-4-(4-(4-bromo-2,3-difluorophenyl)-1H-1,2,3-triazol-1-yl)-N-(3-chloro-5-cyanophenyl)-5-hydroxy-N-((1R,2R)-2-hydroxycyclobutyl)-6-(hydroxymethyl)-3-methoxytetrahydro-2H-pyran-2-carboxamide]	135 nM
CO[C@@H]1[C@@H](n2cc(-c3ccc(Br)c(F)c3F)nn2)[C@@H](O)[C@@H](CO)O[C@H]1C(=O)N(c1cc(F)cc(C#N)c1)[C@@H]1CC[C@H]1O [Example 2.12.7R, (2R,3R,4S,5R,6R)-4-(4-(4-bromo-2,3-difluorophenyl)-1H-1,2,3-triazol-1-yl)-N-(3-cyano-5-fluorophenyl)-5-hydroxy-N-((1R,2R)-2-hydroxycyclobutyl)-6-(hydroxymethyl)-3-methoxytetrahydro-2H-pyran-2-carboxamide]	107 nM
CO[C@@H]1[C@@H](n2cc(-c3ccc(C#N)c(F)c3)nn2)[C@@H](O)[C@@H](CO)O[C@H]1C(=O)N(c1cc(Br)cc(C#N)c1)[C@H]1CC[C@@H]1O [Example 2.16.5, (2R,3R,4S,5R,6R)-N-(3-bromo-5-cyanophenyl)-4-(4-(4-cyano-3-fluorophenyl)-1H-1,2,3-triazol-1-yl)-5-hydroxy-N-((1S,2S)-2-hydroxycyclobutyl)-6-(hydroxymethyl)-3-methoxytetrahydro-2H-pyran-2-carboxamide]	243 nM
CO[C@@H]1[C@@H](n2cc(-c3ccc(C#N)c(F)c3)nn2)[C@@H](O)[C@@H](CO)O[C@H]1C(=O)N(c1cc(Br)cc(C#N)c1)[C@@H]1CC[C@H]1O [Example 2.16.5R, (2R,3R,4S,5R,6R)-N-(3-bromo-5-cyanophenyl)-4-(4-(4-cyano-3-fluorophenyl)-1H-1,2,3-triazol-1-yl)-5-hydroxy-N-((1R,2R)-2-hydroxycyclobutyl)-6-(hydroxymethyl)-3-methoxytetrahydro-2H-pyran-2-carboxamide]	805 nM

The remaining lines, values ahead:

IC50	SMILES
42.7 nM	CO[C@@H]1[C@@H](n2cc(-c3ccc(C)c(F)c3F)nn2)[C@@H](O)[C@@H](CO)O[C@H]1C(=O)N(c1cc(Cl)cc(Cl)c1)[C@H]1CC[C@@H]1O [Example 2.11.2, (2R,3R,4S,5R,6R)-N-(3,5-dichlorophenyl)-4-(4-(2,3-difluoro-4-methylphenyl)-1H-1,2,3-triazol-1-yl)-5-hydroxy-N-((1S,2S)-2-hydroxycyclobutyl)-6-(hydroxymethyl)-3-methoxytetrahydro-2H-pyran-2-carboxamide]
74.8 nM	CO[C@@H]1[C@@H](n2cc(-c3ccc(C)c(F)c3F)nn2)[C@@H](O)[C@@H](CO)O[C@H]1C(=O)N(c1cc(Cl)cc(Cl)c1)[C@@H]1CC[C@H]1O [Example 2.11.2R, (2R,3R,4S,5R,6R)-N-(3,5-dichlorophenyl)-4-(4-(2,3-difluoro-4-methylphenyl)-1H-1,2,3-triazol-1-yl)-5-hydroxy-N-((1R,2R)-2-hydroxycyclobutyl)-6-(hydroxymethyl)-3-methoxytetrahydro-2H-pyran-2-carboxamide]
17.1 nM	CO[C@@H]1[C@@H](n2cc(-c3ccc(C)c(F)c3F)nn2)[C@@H](O)[C@@H](CO)O[C@H]1C(=O)N(c1cc(Br)cc(C#N)c1)[C@H]1CC[C@@H]1O [Example 2.11.5, (2R,3R,4S,5R,6R)-N-(3-bromo-5-cyanophenyl)-4-(4-(2,3-difluoro-4-methylphenyl)-1H-1,2,3-triazol-1-yl)-5-hydroxy-N-((1S,2S)-2-hydroxycyclobutyl)-6-(hydroxymethyl)-3-methoxytetrahydro-2H-pyran-2-carboxamide]
98.7 nM	CO[C@@H]1[C@@H](n2cc(-c3ccc(C)c(F)c3F)nn2)[C@@H](O)[C@@H](CO)O[C@H]1C(=O)N(c1cc(Br)cc(C#N)c1)[C@@H]1CC[C@H]1O [Example 2.11.5R, (2R,3R,4S,5R,6R)-N-(3-bromo-5-cyanophenyl)-4-(4-(2,3-difluoro-4-methylphenyl)-1H-1,2,3-triazol-1-yl)-5-hydroxy-N-((1R,2R)-2-hydroxycyclobutyl)-6-(hydroxymethyl)-3-methoxytetrahydro-2H-pyran-2-carboxamide]
45 nM	CO[C@@H]1[C@@H](n2cc(-c3ccc(Br)c(F)c3F)nn2)[C@@H](O)[C@@H](CO)O[C@H]1C(=O)N(c1cc(Cl)cc(C#N)c1)[C@H]1CC[C@@H]1O [Example 2.12.4, (2R,3R,4S,5R,6R)-4-(4-(4-bromo-2,3-difluorophenyl)-1H-1,2,3-triazol-1-yl)-N-(3-chloro-5-cyanophenyl)-5-hydroxy-N-((1S,2S)-2-hydroxycyclobutyl)-6-(hydroxymethyl)-3-methoxytetrahydro-2H-pyran-2-carboxamide]
25.9 nM	CO[C@@H]1[C@@H](n2cc(-c3ccc(Br)c(F)c3F)nn2)[C@@H](O)[C@@H](CO)O[C@H]1C(=O)N(c1cc(Br)cc(C#N)c1)[C@H]1CC[C@@H]1O [Example 2.12.5, (2R,3R,4S,5R,6R)-4-(4-(4-bromo-2,3-difluorophenyl)-1H-1,2,3-triazol-1-yl)-N-(3-bromo-5-cyanophenyl)-5-hydroxy-N-((1S,2S)-2-hydroxycyclobutyl)-6-(hydroxymethyl)-3-methoxytetrahydro-2H-pyran-2-carboxamide]
78.5 nM	CO[C@@H]1[C@@H](n2cc(-c3ccc(Br)c(F)c3F)nn2)[C@@H](O)[C@@H](CO)O[C@H]1C(=O)N(c1cc(Br)cc(C#N)c1)[C@@H]1CC[C@H]1O [Example 2.12.5R, (2R,3R,4S,5R,6R)-4-(4-(4-bromo-2,3-difluorophenyl)-1H-1,2,3-triazol-1-yl)-N-(3-bromo-5-cyanophenyl)-5-hydroxy-N-((1R,2R)-2-hydroxycyclobutyl)-6-(hydroxymethyl)-3-methoxytetrahydro-2H-pyran-2-carboxamide]
48 nM	CO[C@@H]1[C@@H](n2cc(-c3ccc(Br)c(F)c3F)nn2)[C@@H](O)[C@@H](CO)O[C@H]1C(=O)N(c1cc(F)cc(C#N)c1)[C@H]1CC[C@@H]1O [Example 2.12.7, (2R,3R,4S,5R,6R)-4-(4-(4-bromo-2,3-difluorophenyl)-1H-1,2,3-triazol-1-yl)-N-(3-cyano-5-fluorophenyl)-5-hydroxy-N-((1S,2S)-2-hydroxycyclobutyl)-6-(hydroxymethyl)-3-methoxytetrahydro-2H-pyran-2-carboxamide]
